pIC50: −log10 of the molar value.
Legend:
MCF7 cells = test: Inhibition of the proliferation of MCF7 cells (Cell Titer-Glo); format: cell-based; settings: Homo sapiens, MCF-7 cells, 72 hours, read-out: IC50 value of inhibition effect on the proliferation of MCF7 cells
Summary of the method: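 MCF-7 cells seeded 24 h, then treated with compound (0.5% DMSO final) in 2% FBS medium for 72 h at 37 °C; viability read by CellTiter-Glo luminescence. IC50 from luminescence vs log concentration; maximum inhibition scaled to AZD9496 at 100 nM set as 100%.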

[1] = Pharmacokinetics assay in BALB/C nude mice after intragastrical administration; format: in vivo; settings: female, mouse, po, 3 mg/kg, plasma; for Vd/F: read-out: Apparent Distribution Volume Vz/F; for AUC: read-out: Area Under Curve AUC; for CL/F: read-out: Clearance CL/F; for half-life: read-out: Half-Life t1/2 (converted); for MRT: read-out: Mean Residence Time MRT; for Cmax: read-out: Plasma Conc. Cmax
Experimental: BALB/C nude mice were used as test animals. The drug concentration in plasma at different time points was determined by LC/MS/MS after intragastrical administration of the compounds of Examples 1, 7, 8, 10, 11, 14, 16, 39 and 42 to BALB/C nude mice. The pharmacokinetic behavior of the compounds of the compounds of the present invention was studied and evaluated in BALB/C nude mice.
Eighty-one (81) female BALB/C nude mice, were equally divided into 9 groups, which were purchased from SINO-BRITSH SIPPR/BK LAB. ANIMAL LTD., CO, with Certificate No.: SOCK (Shanghai) 2008-0016.
The appropriate amount of each test compound was weighed, and successively added with 9% PEG400+0.5% tween 80+0.5% PVP+90% aqueous solution of 0.5% CMC.
After an overnight fasting, 81 female BALB/C nude mice were equally divided into 9 groups; and administered the test compounds intragastrically at an administration volume of 0.2 mL/10 g.
81 female Balb/C nude mice were administered the test compounds intragastrically after an overnight fasting. Blood (0.1 mL) was taken (3 animals at each time point) at 0.5, 1.0, 2.0, 4.0, 6.0, 8.0, 11.0, and 24.0 h after administration. The samples were stored in heparinized test tubes, and centrifuged for 10 minutes at 3,500 rpm to separate the blood plasma. The plasma samples were stored at −20° C.
The concentration of the prototype drug in the plasma and in the solution to be administered was determined by liquid chromatography tandem mass spectrometry (LC/MS MS).

| Compound | pIC50 (MCF7 cells) | Vd/F [1] [L/kg] | AUC [1] [ng·h/mL] | CL/F [1] [mL/min/kg] | half-life [1] [h] | MRT [1] [h] | Cmax [1] [ng/mL] |
| --- | --- | --- | --- | --- | --- | --- | --- |
| CCc1ccc(N2C(C)Cc3cc(-c4cnn(C)c4)ccc3C2c2ccc(/C=C/C(=O)O)cc2)cc1 [Example 1, (E)-3-(4-((1R,3R/1S,3S)-2-(4-Ethylphenyl)-3-methyl-6-(1-methyl-1H-pyrazol-4-yl)-1,2,3,4-tetrahydroisoquinolin-1-yl)phenyl)acrylic acid] | 9.43 | 0.865 | 14400 | 3.48 | 2.87 | 4.53 | 3440 |
| CCn1cc(-c2ccc3c(c2)CC(C)N(c2ccc(C(C)C)cc2)C3c2ccc(/C=C/C(=O)O)cc2)cn1 [Example 7, (E)-3-(4-((1R,3R/1S,3S)-6-(1-Ethyl-1H-pyrazol-4-yl)-2-(4-isopropylphenyl)-3-methyl-1,2,3,4-tetrahydroisoquinolin-1-yl)phenyl)acrylic acid] | 9.07 | 1.23 | 12900 | 3.88 | 3.67 | 6.8 | 1280 |
| C[C@@H]1Cc2cc(-c3cnn(C)c3)ccc2[C@@H](c2ccc(/C=C/C(=O)O)cc2)N1c1ccc(C2CC2)cc1 [Example 11, (E)-3-(4-((1R,3R)-2-(4-Cyclopropylphenyl)-3-methyl-6-(1-methyl-1H-pyrazol-4-yl)-1,2,3,4-tetrahydroisoquinolin-1-yl)phenyl)acrylic acid] | 8.83 | 1.48 | 16400 | 3.06 | 5.58 | 7.9 | 1890 |
| CCn1cc(-c2ccc3c(c2)C[C@@H](C)N(c2ccc(C4CC4)cc2)[C@@H]3c2ccc(/C=C/C(=O)O)cc2)cn1 [Example 14, (E)-3-(4-((1R,3R)-2-(4-Cyclopropylphenyl)-6-(1-ethyl-1H-pyrazol-4-yl)-3-methyl-1,2,3,4-tetrahydroisoquinolin-1-yl)phenyl)acrylic acid] | 9.28 | 1.26 | 14800 | 3.39 | 4.29 | 6.73 | 2480 |

These reach a higher pIC50 (MCF7 cells). Values come first.

| pIC50 (MCF7 cells) | Vd/F [1] [L/kg] | AUC [1] [ng·h/mL] | CL/F [1] [mL/min/kg] | half-life [1] [h] | MRT [1] [h] | Cmax [1] [ng/mL] | Compound |
| --- | --- | --- | --- | --- | --- | --- | --- |
| 9.47 | 3.1 | 11200 | 4.46 | 8.04 | 9.21 | 1270 | CC(C)c1ccc(N2[C@H](c3ccc(/C=C/C(=O)O)cc3)c3ccc(-c4cnn(C)c4)cc3C[C@H]2C)cc1 [Example 42, (E)-3-(4-((1R,3R)-2-(4-Isopropylphenyl)-3-methyl-6-(1-methyl-1H-pyrazol-4-yl)-1,2,3,4-tetrahydroisoquinolin-1-yl)phenyl)acrylic acid] |
| 9.77 | 1.51 | 9380 | 5.33 | 3.27 | 5.26 | 1620 | CCn1cc(-c2ccc3c(c2)C[C@@H](C)N(c2ccc(C(C)C)cc2)[C@@H]3c2ccc(/C=C/C(=O)O)cc2)cn1 [Example 8, (E)-3-(4-((1R,3R)-6-(1-Ethyl-1H-pyrazol-4-yl)-2-(4-isopropylphenyl)-3-methyl-1,2,3,4-tetrahydroisoquinolin-1-yl)phenyl)acrylic acid] |

From patent US10398689B2, “Benzopiperidine derivative, preparation method thereof and medical use thereof” (Jiangsu Hengrui Medicine Co., Ltd., priority 2015, dated 2019)
